From ChEMBL document CHEMBL1201862, “PubChem BioAssay data set” (2004)
Active and inactive are the calls of the source.

How the values were obtained:
[1] = luciferase reporter signal suppression in cells – H4 neuroglioma cells, luminescence, dose response (AID 1990); format: functional, cell-based
HeLa = experiment: viability loss in HeLa cells – cell-based, ATP luminescence, cherry-pick samples, cytotoxicity control, dose response (AID 687004); format: functional; settings: Homo sapiens
INS1 = experiment: INS-1E survival protection against cytokine death – cell-based, luminescence, retest, dose response (AID 449756); format: functional; settings: Rattus norvegicus;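 also: cell death triggered by IL-1 beta plus TNF-alpha plus IFN-gamma mixture; protective hits raise ATP signal compared with cytokine alone wells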
[2] = Luminescence Cell-Based Dose Response HTS to Identify Inhibitors of 5'UTR Stem-Loop Driven Prion Protein mRNA Translation in H4 Neuroglioblastoma Cells. [Related pubchem assays: 1827 (Project Summary), 1813 (Primary HTS)]; format: functional
[3] = alpha-synuclein stem-loop luciferase translation blockers – H4 neuroglioma cells, luminescence, confirmation (AID 1988); format: functional, cell-based
[4] = target: T1, DNA repair protein RAD52 homolog (Homo sapiens, UniProt P43351); format: functional, biochemical
T1 sequence (P43351 whole entry): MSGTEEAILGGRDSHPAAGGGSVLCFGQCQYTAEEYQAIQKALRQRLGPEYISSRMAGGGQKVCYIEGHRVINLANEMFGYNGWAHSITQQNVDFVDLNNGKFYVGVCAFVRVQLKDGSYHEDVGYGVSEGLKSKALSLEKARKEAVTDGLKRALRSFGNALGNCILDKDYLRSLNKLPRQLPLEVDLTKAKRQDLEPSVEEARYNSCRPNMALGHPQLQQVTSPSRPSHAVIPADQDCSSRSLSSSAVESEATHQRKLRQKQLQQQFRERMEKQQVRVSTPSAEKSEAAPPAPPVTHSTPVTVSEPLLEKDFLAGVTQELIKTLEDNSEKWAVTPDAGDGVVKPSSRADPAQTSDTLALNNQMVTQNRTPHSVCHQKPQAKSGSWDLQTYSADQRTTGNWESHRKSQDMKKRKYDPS

[5] = general mammalian cell viability loss – inhibitor set, cherry-pick, set 2, cytotoxicity control for miR-122 modulator project, dose response (AID 720697); format: functional, cell-based
[6] = activation of miR-122 Renilla sensor silencing – cell-based, Huh7 psiCHECK-miR122, Renilla luciferase, cherry-picked, dose response (AID 651956); format: functional;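 also: huh7 hepatoma cells stably carrying a psiCHECK-2 miR-122 sensor plasmid; renilla luciferase signal reporting endogenous miR-122 activity after 48 h compound exposure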
[7] = general mammalian cell viability loss – activator set, cherry-pick, cytotoxicity control for miR-122 modulator project, dose response (AID 720690); format: functional, cell-based;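 also: HEK293T human cells scored for general mammalian cytotoxicity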
Beta-galactosidase = Beta-galactosidase (Escherichia coli, UniProt Q8VNN2); experiment: Dose response counterscreen for EBI2 assay utilizing the enzyme, b-galactosidase.; format: functional
[8] = target: T2, Beta-2 adrenergic receptor (Homo sapiens, UniProt P07550); experiment: ADRB2 activation measured by internalization – cell-based, FAP fluorogen, flow cytometry, cherry pick 1, dose response (AID 588763); format: functional
[9] = target: T2, Beta-2 adrenergic receptor; experiment: Dose response for HTS for Beta-2AR agonists via FAP method from Powderset3.; format: functional
[10] = target: Broad substrate specificity ATP-binding cassette transporter ABCG2 (Homo sapiens, UniProt Q9UNQ0); experiment: blockers of JC-1 export by ABCG2 – Ig-MXP3 cells, flow cytometry, dose response (AID 1690); format: functional
Prothrombin = Prothrombin (Homo sapiens, UniProt P00734); experiment: Thrombin 1536 HTS Dose Response Confirmation. [Related pubchem assays: 1046 (Thrombin 1536 HTS; hits were confirmed in this assay)]; format: functional
[11] = target: DNA dC->dU-editing enzyme APOBEC-3G (Homo sapiens, UniProt Q9HC16); experiment: Dose Response confirmation of small molecule APOBEC3G DNA Deaminase Inhibitors via a fluorescence-based single-stranded DNA deaminase assay. [Related pubchem assays (depositor defined):AID493012, AID493028]; format: functional
Major prion protein = Major prion protein (Homo sapiens, UniProt P04156); format: functional, cell-based
[12] = target: DNA dC->dU-editing enzyme APOBEC-3A (Homo sapiens, UniProt P31941); experiment: A3A deaminase inhibition for selectivity – biochemical, dose response (AID 504722); format: functional
[13] = target: Peroxisome proliferator-activated receptor gamma/Nuclear receptor coactivator 1 (Homo sapiens, UniProt P37231); experiment: TR-FRET dose response biochemical High Throughput Screening assay for agonists of the steroid receptor coactivator 1 (SRC-1) recruitment by the peroxisome proliferator-activated receptor gamma (PPAR gamma): non-selective agonists. [Related pubchem assays (depositor defined):AID1300, AID1808, AID504735, AID631]; format: protein assay
[14] = target: Peroxisome proliferator-activated receptor gamma/Nuclear receptor coactivator 2 (Homo sapiens, UniProt P37231); experiment: (§1) TR-FRET dose response biochemical High Throughput Screening assay for agonists of the steroid receptor coactivator 2 (SRC-2) recruitment by the peroxisome proliferator-activated receptor gamma (PPAR gamma): non-selective agonists. [Related pubchem assays: 1297, 1032 ]; format: functional
[15] = target: Peroxisome proliferator-activated receptor gamma/Nuclear receptor coactivator 3 (Homo sapiens, UniProt P37231); experiment: as §1, with “3 (SRC-3)” for “2 (SRC-2)”, “1301 (Confirmation screen.), 1048 (Primary screen.)]” for “1297, 1032 ]”; format: functional
[16] = target: FAD-linked sulfhydryl oxidase ALR (Homo sapiens, UniProt P55789); experiment: ALR-catalysed DTT oxidation blockers – biochemical, H2O2 detection, luminescence, cherry-pick, dose response (AID 493248)

With CC(=O)c1sc(NC(=O)C2(F)C(F)(F)C(F)(F)C(F)(F)C(F)(F)C2(F)F)nc1C the EC50 [1] was > 120 µM (not active), the AC50 (HeLa) was 22.6 µM (active) and the AC50 (INS1) was 4.23 µM (active). The EC50 [2] was > 120 µM (not active) and the EC50 [3] was 32.2 µM (active).
For NCC12CC3CC(C1)CC(c1ccc(Br)cc1)(C3)C2, the AC50 [4] was 32 µM (active), the AC50 [5] was 5.67 µM (active) and the AC50 [6] was 16.3 µM (active). The AC50 [7] was 17.1 µM (active).
With COc1ccc(N2CCN(C(=O)c3ccc4c(c3)CC(c3ccccc3)OC4=O)CC2)cc1 (configuration not stated) the IC50 (Beta-galactosidase) was > 80 µM (inactive).
In the case of CC(Sc1nc(-c2ccccc2)cc(C(F)(F)F)n1)C(=O)N1CCCCC1 (configuration not stated), the EC50 [8] is reported as 0.214 µM (active) and the EC50 [9] is reported as 0.0143 µM (active).
With CC(C)C(NS(=O)(=O)c1ccccc1)C(=O)OCc1cc([N+](=O)[O-])cc2c1OCOC2 (configuration not stated) the EC50 [10] was 1.57 µM (active) and the IC50 (Prothrombin) was > 50 µM (not active).
For COc1ccccc1-c1n[nH]c(=S)n1-c1ccccc1, the IC50 [11] was 4.99 µM (active), the IC50 (Major prion protein) was 7.18 µM (active) and the IC50 [12] was > 100 µM (inactive). For the same molecule, the EC50 [13] was 10.5 µM (inactive), the EC50 [14] was 6.26 µM (active) and the EC50 [15] was > 79.4 µM (not active). The AC50 [16] was 0.058 µM (active).
For COc1ccccc1-c1nnc(S)n1-c1ccccc1, the IC50 (cells) was > 138 µM (inactive).
